Laboratory results from patent US20230304010A1, “COMPOSITIONS AND METHODS FOR TREATING VIRAL INFECTIONS” (priority 2020, published 2023).
Where two headings read alike, the source gives them in different places.

How the values were obtained:
[1] = tested on: SARS-CoV-2 variants (Alpha/Beta/Delta); assay type: cell-based
[2] = tested on: ACE2 : SARS-CoV-2 Spike Alpha (B1.1.7/United Kingdom) variant; assay type: binding; conditions: read-out: IC50, Alpha (B117)
[3] = tested on: ACE2 : SARS-CoV-2 Spike Delta (B1 617 2/India) variant; assay type: binding; conditions: read-out: IC50, Delta (B1617)
[4] = tested on: ACE2 : SARS-CoV-2 Spike Gamma (P1/Brazil) variant; assay type: binding
[5] = tested on: ACE2 : SARS-CoV-2 Spike Beta (B1.351/South Africa) variant; assay type: binding; conditions: read-out: IC50, Beta (B1312)
[6] = tested on: ACE2 : SARS-CoV-2 Spike Epsilon (B1429) variant; assay type: binding

Q: With “GGCCAAACTGTCACTAAGAAA (chemistry not given here) [DIVC-6]” as the molecule, how does the IC50 (SARS-CoV-2 Beta variant; read-out: Beta (B1312) IC50) read?
A: Its IC50 is 58.5 nM.

Q: What about the “inhibitory activity against all SARS-CoV2 variant viruses” value [1] of the same molecule?
A: The value was “potent inhibitory activity”.

Q: And the IC50 (SARS-CoV-2 Delta variant; read-out: Delta (B1617) IC50)?
A: Its IC50 is 91.3 nM.

Q: What about the IC50 (SARS-CoV-2 Alpha variant; read-out: Alpha (B117) IC50) of the same molecule?
A: Its IC50 is 84.5 nM.

Q: For “Ac-N*GVEGFNK*Ava-LWRALWRLWRSLWRLLWK-NH2 [Seq17]”, which IC50 [2] is on record?
A: Its IC50 is 136 ± 21 nM.

Q: What about the IC50 (SARS-CoV-2 Beta variant; read-out: Beta (B1312) IC50) of the same molecule?
A: Its IC50 is 118 ± 15 nM.

Q: And the IC50 (SARS-CoV-2 Beta variant; read-out: IC50, Beta (B1312))?
A: The IC50 was 118 ± 15 nM.

Q: What about the IC50 [3] of the same molecule?
A: The IC50 was 48.2 ± 11 nM.

Q: What about the IC50 [4] of the same molecule?
A: The IC50 was 87.2 ± 20 nM.

Q: And the IC50 [5]?
A: Its IC50 is 75.2 ± 21 nM.

Q: What about the IC50 [6] of the same molecule?
A: The IC50 was 94.7 ± 17 nM.

Q: And the IC50 (SARS-CoV-2 Delta variant; read-out: Delta (B1617) IC50)?
A: The IC50 was 25.7 ± 10 nM.

Q: What about the IC50 (SARS-CoV-2 Delta variant; read-out: IC50, Delta (B1617)) of the same molecule?
A: Its IC50 is 25.7 ± 10 nM.

Q: And the IC50 (SARS-CoV-2 Alpha variant; read-out: Alpha (B117) IC50)?
A: The IC50 was 125 ± 24 nM.

Q: What about the IC50 (SARS-CoV-2 Alpha variant; read-out: IC50, Alpha (B117)) of the same molecule?
A: The IC50 was 125 ± 24 nM.

Q: With `CC(=O)N[C@@H](CCC(=O)O)C(=O)N[C@@H](CCC(N)=O)C(=O)N[C@@H](C)C(=O)N[C@@H](CCCCN)C(=O)N[C@H](C(=O)N[C@@H](Cc1ccccc1)C(=O)N[C@@H](CC(C)C)C(=O)N[C@@H](CC(=O)O)C(=O)N[C@@H](CCCCN)C(=O)N[C@@H](Cc1ccccc1)C(=O)N[C@@H](CC(N)=O)C(=O)N[C@@H](Cc1c[nH]cn1)C(=O)N[C@@H](CCC(=O)O)C(=O)N[C@@H](C)C(=O)N[C@@H](CCC(=O)O)C(=O)N[C@@H](CC(=O)O)C(=O)N[C@@H](CC(C)C)C(=O)N[C@@H](Cc1ccccc1)C(=O)NCCCCCC(=O)N[C@@H](CC(C)C)C(=O)N[C@@H](Cc1c[nH]c2ccccc12)C(=O)N[C@@H](CCCNC(=N)N)C(=O)N[C@@H](C)C(=O)N[C@@H](CC(C)C)C(=O)N[C@@H](Cc1c[nH]c2ccccc12)C(=O)N[C@@H](CCCNC(=N)N)C(=O)N[C@@H](CC(C)C)C(=O)N[C@@H](Cc1c[nH]c2ccccc12)C(=O)N[C@@H](CCCNC(=N)N)C(=O)N[C@@H](CO)C(=O)N[C@@H](CC(C)C)C(=O)N[C@@H](Cc1c[nH]c2ccccc12)C(=O)N[C@@H](CCCNC(=N)N)C(=O)N[C@@H](CC(C)C)C(=O)N[C@@H](CC(C)C)C(=O)N[C@@H](Cc1c[nH]c2ccccc12)C(=O)N[C@@H](CCCCN)C(N)=O)[C@@H](C)O` [Seq33] as the molecule, how does the IC50 [2] read?
A: Its IC50 is 17.8 ± 9 nM.

Q: What about the “fold stronger anti-SARS-CoV-2 activity than Remdesivir” value [1] of the same molecule?
A: The value was 200 fold.

Q: And the IC50 [3]?
A: Its IC50 is 25.7 ± 8 nM.

Q: What about the IC50 [4] of the same molecule?
A: Its IC50 is 20.2 ± 5 nM.

Q: What about the IC50 [5] of the same molecule?
A: Its IC50 is 28.8 ± 10 nM.

Q: And the IC50 [6]?
A: Its IC50 is 31.4 ± 9 nM.
